Measurements from patent publication US20100249419A1, “UTILIZATION OF NOVEL COMPOUNDS WITH AMYLOID AFFINITY AND METHOD OF PRODUCING THE SAME” (NIHON MEDI-PHYSICS CO., LTD., priority 2007, published 2010).

Legend:
[1] = [^11C]-labeled, rats; cited from earlier work
[2] = molecular target: T1, aggregated Aβ (Aβ1-40) injected into amygdaloid nucleus (Homo sapiens, UniProt P05067); assay: Ex vivo autoradiogram using rats of amyloid injected model (Aβ1-40); assay type: in vivo, male Wistar rat; conditions: brain slice 60 minutes after tail vein injection
T1 construct: Aβ1-40 (manufactured by Peptide Institute, INC.) was dissolved in phosphate buffer (pH 7.4); purchased Peptide Institute, INC
T1 sequence (P05067 672-711): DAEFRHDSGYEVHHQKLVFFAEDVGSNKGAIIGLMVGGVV
Description: (1) Aβ1-40 (manufactured by Peptide Institute, INC.) was dissolved in phosphate buffer (pH 7.4) and shaken at 37° C. for 72 hours, to obtain a 1 mg/mL suspension of aggregated Aβ (hereinafter referred to as amyloid suspension in this Example).
(2) 2.5 μL (corresponding to […]) of the amyloid suspension was injected into an amygdaloid nucleus on one side of a male Wistar rat (7-week old). As a control, 2.5 μL of a phosphate buffered physiological saline solution (pH 7.4) was injected into an amygdaloid nucleus on the other side of the rat. The rats were examined 1 day after the injection of the amyloid suspension and the phosphate buffered physiological saline solution (pH 7.4).
(3) [^123I]-IMPY was dissolved in a 10 mg/mL ascorbic acid-containing physiological saline solution to obtain a sample solution (29 MBq/mL in radioactivity concentration in the sample solution). This solution was injected under thiopental anesthesia into the rat through the tail vein (dosage: 0.5 mL, dosed radioactivity: 14.5 MBq equivalent).
(4) Brain was removed 60 minutes after the injection to prepare a brain slice of 10 μm in thickness with a microtome (type: CM3050S, manufactured by LEICA). The brain slice was exposed to an imaging plate for 20 hours, and then image analysis was carried out by use of a Bio-imaging Analyzer (type: BAS-2500; manufactured by FUJIFILM Corporation). […]

[3] = Partition coefficient based on the octanol extraction method; assay type: physicochemical; conditions: octanol / 10 mmol/L phosphate buffer (pH 7.4)
Description: Partition coefficients based on the octanol extraction method (hereinafter referred to as log Poctanol) were measured, which are generally known as an indicator of permeability of compounds through the blood-brain barrier (hereinafter referred to as BBB).
A diethyl ether solution of Compound 1 prepared in Example 3 (Example 8), a diethyl ether solution of Compound 2 prepared in Example 6 (Example 9), and a diethyl ether solution of [^123I]-IMPY prepared in Reference Example 1 (Comparative Example 4) were each diluted with 10 mg/mL ascorbic acid-containing physiological saline solution, and adjusted to a radioactive concentration of 20-30 MBq/mL. To 2 mL of octanol, 10 μL each of the prepared sample solutions was added, 2 mL of 10 mmol/L phosphate buffer (pH 7.4) was added, followed by stirring for 30 seconds. After the mixture was centrifuged with a low-speed centrifuge (2000 rpm×60 min.), the octanol layer and the water layer were sampled each in an amount of 1 mL, and subjected to measurement of radioactivity count with an autowell gamma system (Type: ARC-301B, manufactured by Aloka). Using the obtained radioactivity count, log Poctanol was calculated in accordance with the equation (2).
A diethyl ether solution (Example 20) of Compound 4 prepared in Example 16, a diethyl ether solution (Example 21) of Compound 6 prepared in Example 19, and a diethyl ether solution (Comparative Example 7) of [^123I]-IMPY were each diluted with a 10 mg/mL ascorbic acid-containing physiological saline solution to adjust to a radioactive concentration of 20-30 MBq/mL. To 2 mL of octanol, 10 μL each of the prepared sample solution was added, and 2 mL of 10 mmol/L phosphate buffer (pH 7.4) was further added, followed by stirring for 30 seconds. After the mixture was centrifuged with a low-speed centrifuge (2000 rpm×60 min.), the octanol layer and the water layer were sampled each in an amount of 1 mL, and subjected to measurement of radioactivity count with an autowell gamma system (Type: ARC-301B, manufactured by Aloka). Using the obtained radioactivity count, logPoctanol was calculated in accordance with the equation (4).

[4] = Transferability into brain and clearance; assay type: in vivo, male Wistar rats; conditions: intravenous injection, rats
Description: Using Compound 1 (Example 10) and Compound 2 (Example 11), a time course change of radioactive accumulation in brain of male Wistar rats (7-week old) was measured.
A diethyl ether solution of Compound 1 (Example 10) prepared in Example 3, a diethyl ether solution of Compound 2 (Example 11) prepared in Example 6 and a diethyl ether solution of [^123I]-IMPY (Comparative Example 5) prepared in Reference Example 1 were each diluted with 10 mg/mL ascorbic acid-containing physiological saline solution to adjust to a radioactive concentration of 8-12 MBq/mL. 0.05 mL each of the prepared sample solutions was injected under thiopental anesthesia into the tail vein of the rats. The rats were sacrificed by bleeding from abdominal artery, and brains were removed and subjected to measurement of mass of brains and further subjected to measurement of radioactivity (hereinafter referred to as A in this Example) with a single channel analyzer (detector type: SP-20 manufactured by OHYO KOKEN KOGYO Co., Ltd.) 2, 5, 30 and 60 minutes after the injection. Further, the radioactivity level of the rest of the whole body was measured in the same manner as above (hereinafter referred to as B in this Example). Using these measurement results, radioactive distribution per unit weight of brain (% ID/g) at the respective time points were calculated in accordance with the following formula (3).
Three animals were used for the experiment at the respective time points.
Using Compound 4 and Compound 6, a time course change of radioactive accumulation in brain of male Wistar rats (7-week old) was measured.
Compound 4 (Example 22), Compound 6 (Example 23) and a solution of [^123I]-IMPY (Comparative Example 8) prepared above in Reference Example 1 were each diluted with a 10 mg/mL ascorbic acid-containing physiological saline solution to prepare solutions (20-31 MBq/mL in radioactive concentration). 0.05 mL each of the prepared sample solutions was injected under thiopental anesthesia into the tail vein of the respective Wistar rat (7-week old). The rats were sacrificed by bleeding from abdominal artery, and brains were removed and subjected to measurement of mass of brains and further subjected to measurement of radioactivity (hereinafter referred to as A in this Example) with a single channel analyzer (detector type: SP-20 manufactured by OHYO KOKEN KOGYO Co., Ltd.) 2, 5, 30 and 60 minutes after the injection. Further, the radioactivity level of the rest of the whole body was measured in the same manner as above (hereinafter referred to as B in this Example). Using these measurement results, radioactive distribution per unit weight of brain (% ID/g) at the respective time points were calculated in accordance with the following formula (5).

[5] = test system: Salmonella typhimurium TA98; assay: Reverse mutation test (Ames test), TA98; assay type: cell-based
Description: (§1) In order to examine gene mutagenicity of Compounds 3, 5 and 8, reverse mutation test using Salmonella typhimurium TA98 and TA100 (hereinafter referred to as Ames test) was conducted.
(§2) The test was conducted without addition of S9mix and with addition of S9mix. Dimethylsulfoxide (hereinafter referred to as DMSO) was used as a negative control. A positive control was 2-(2-furyl)-3-(5-nitro-2-furyl)acrylamide (hereinafter referred to as AF-2) in case S9mix was not added, and 2-aminoanthracene (hereinafter referred to as 2-AA) in case S9mix was added.
(§3) As a sample solution to be added to a test plate, each compound was dissolved in DMSO to prepare a solution at a concentration of 50 mg/mL, and further, each solution was diluted with DMSO to prepare a solution with 7 dosage (geometric ratio 3). As a sample solution for preparing a sample of positive control, when TA98 was used as a test strain without addition of S9mix, a solution of AF-2 (compound concentration: 1 μg/mL) in DMSO was prepared; when TA100 was used as a test strain without addition of S9mix, a solution of AF-2 (compound concentration: 0.1 μg/mL) in DMSO was prepared; when TA98 was used as a test strain with addition of S9mix, a solution of 2-AA (compound concentration: 5 μg/mL) in DMSO was prepared; and when TA100 was used as a test strain with addition of S9mix, a solution of 2-AA (compound concentration: 10 μg/mL) in DMSO was prepared.
(§4) After each sample solution to be examined and a test strain (TA98 or TA100) were mixed together so as to make the addition amount of each sample to be 0.1 mL/plate, the mixture was multilayered using soft agar on a medium of a test plate, and then incubated at 37° C. for 48 hours. Separately, after each sample solution to be examined, S9mix and a test strain were mixed together so as to make the addition amount of each sample to be 0.1 mL/plate, the mixture was multilayered using soft agar on a medium of a test plate, and then incubated at 37° C. for 48 hours. On the other hand, only DMSO was used as a sample solution to perform the same procedure as above for the negative control. […]

[6] = test system: Salmonella typhimurium TA100; assay: Reverse mutation test (Ames test), TA100; assay type: cell-based
Description: as §1, §2, §3, §4

[7] = test system: bone marrow cells of Crlj:CD1(ICR) male mouse; assay: Micronucleus test; assay type: in vivo; conditions: single oral administration 250-2000 mg/kg, 24 and 48 hours
Description: In order to study mutagenicity (in vivo) of Compounds 3 and 7, induction of micronucleated polychromatic erythrocyte (hereinafter referred to as MNPCE) was examined using bone marrow cells of Crlj:CD1(ICR) male mouse.
0 mg/kg (negative control group), 250, 500, 1000 and 2000 mg/kg (test sample group) were set as doses for the test. Mice were sacrificed 24 and 48 hours after single oral administration, and bone marrow smear was prepared and observed. Further, a single dose of MMC at 2 mg/kg was abdominally administrated in positive control group, mice were sacrificed 24 hours after the administration, and then bone marrow smear was prepared and observed.
As statistical analysis, significance tests were conducted by Wilcoxon rank sum test for the appearance frequency of MNPCE and the ratio of polychromatic erythrocyte (hereinafter referred to as PCE) to the total red blood cell (hereinafter referred to as RBC) in each administration group concerning the test sample and positive control groups relative to the negative control group and concerning these groups relative to each other where the significance level was set to less than 5% and less than 1%, respectively.

[8] = molecular target: T2, aggregated Aβ (Aβ1-42) amyloid (Homo sapiens, UniProt P05067); assay: In vitro binding test: inhibition of [^125I]3′-I-BTA-0 binding to amyloid
T2 construct: Aβ1-42 (manufactured by Wako) was dissolved in phosphate buffer (pH 7.4); purchased Wako
T2 sequence (P05067 672-713): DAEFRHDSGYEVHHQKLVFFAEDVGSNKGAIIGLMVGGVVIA
Description: Affinity of the present compounds with amyloid was examined by the following in vitro binding tests.
The measured radioactivity level was defined as the background radioactivity level, and used in the calculation of the inhibition ratio (hereinafter referred to as BG).
(9) Using the radioactivity levels measured above in (7) and (8), the inhibition ratio was determined by the following formula (1).
A graph in which values converted by probit transformation from the obtained inhibition ratios were plotted relative to logarithms of concentrations of compounds for evaluation was prepared to obtain an approximate straight line by the least square method.

[9] = TA98, without addition of S9mix
[10] = TA100, without addition of S9mix

SMILES: CNc1ccc(/C=C/c2ccc(O)cc2)cc1 [SB-13, (E)-4-methylamino-4′-hydroxystilbene]
- Clearance from normal tissues [1]: it cannot be said that the clearance is sufficiently fast

SMILES: CN(C)c1ccc(-c2cn3cc([123I])ccc3n2)cc1 [[^123I]-IMPY, reference compound]
- Accumulation of radioactivity in amygdaloid nucleus on the amyloid-injected side [2]: marked accumulation of radioactivity
- logPoctanol value ([3]; Table 4, Examples 8-9): 1.9
- logPoctanol value ([3]; Table 6, Examples 20-21): 2.1
- Radioactive distribution per unit weight of brain ([4]; After 2 min., Table 5): 1.19 % ID/g
- Radioactive distribution per unit weight of brain ([4]; After 2 min., Table 7): 1.19 % ID/g
- Radioactive distribution per unit weight of brain ([4]; After 5 min., Table 5): 0.97 % ID/g
- Radioactive distribution per unit weight of brain ([4]; After 5 min., Table 7): 0.97 % ID/g
- Radioactive distribution per unit weight of brain ([4]; After 30 min., Table 5): 0.23 % ID/g
- Radioactive distribution per unit weight of brain ([4]; After 30 min., Table 7): 0.23 % ID/g
- Radioactive distribution per unit weight of brain ([4]; After 60 min., Table 5): 0.09 % ID/g
- Radioactive distribution per unit weight of brain ([4]; After 60 min., Table 7): 0.09 % ID/g

SMILES: OCCCOc1ccc(-c2cn3cc(I)ccc3n2)cc1 [Compound 7, 2-[4′-(3″-hydroxypropoxy)phenyl]-6-iodoimidazo[1,2-a]pyridine]
- Mutagenicity ([5]; TA98, with addition of S9mix): Negative
- Mutagenicity [5, 9]: Negative
- Mutagenicity ([6]; TA100, with addition of S9mix): Negative
- Mutagenicity [6, 10]: Negative
- Mutagenicity (in vivo), induction of MNPCE [7]: negative

SMILES: OCCOc1ccc(-c2cn3cc(I)ccc3n2)cc1 [Compound 3, 2-[4′-(2″-hydroxyethoxy)phenyl]-6-iodoimidazo[1,2-a]pyridine]
- IC50 ([8]; [^125I]3′-I-BTA-0 400 pmol/L, amyloid 1 μmol/L, 22° C., 3 hours): 66.9 nM
- IC50 ([8]; unit inferred): < 100 nM
- Mutagenicity ([5]; TA98, with addition of S9mix): Negative
- Mutagenicity [5, 9]: Negative
- Mutagenicity ([6]; TA100, with addition of S9mix): Negative
- Mutagenicity [6, 10]: Negative
- Mutagenicity (in vivo), induction of MNPCE [7]: negative
